Laboratory results taken from patent US9326506B2, “Preparation method, agricultural composition and applications of natural brassinolide analogs” (CHENGDU NEWSUN CROPSCIENCE CO., LTD, priority 2012, dated 2016).

Tested on: rice
Assay: Low temperature assay on rice seedlings
Type: in vivo
How it was run: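 Nine-day-old etiolated rice seedlings (grown on water at 30 °C±2 °C, dark) immersed in brassinolide analogues at 1–0.0001 mg/L or pure water, held at 1–5 °C for 24 hr. Plant height, leaf area, root weight read at 3, 6, 9, 12 days; leaf and tiller number at 12 days.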

## CC(C)[C@H](C)[C@@H](O)[C@H](O)[C@@H](C)[C@H]1CCC2C3COC(=O)C4C[C@H](O)[C@H](O)C[C@]4(C)C3CC[C@@]21C (stereo partly shown) [BR1]
0.0001 mg/l, 1 °C, 3 days
  Area of leaf: 10 cm^2
  Height: 7.1 cm
  Weight of root: 2.8 g
0.0001 mg/l, 1 °C, 6 days
  Area of leaf: 11.2 cm^2
  Height: 7.2 cm
  Weight of root: 3.1 g
0.0001 mg/l, 1 °C, 9 days
  Area of leaf: 12.4 cm^2
  Height: 7.3 cm
  Weight of root: 3.4 g
0.0001 mg/l, 1 °C, 12 days
  Area of leaf: 13 cm^2
  Height: 7.4 cm
  Number of leaf: 3
  Number of tiller: 3
  Weight of root: 3.9 g
0.0001 mg/l, 2 °C, 3 days
  Area of leaf: 10.2 cm^2
  Height: 7.1 cm
  Weight of root: 2.8 g
0.0001 mg/l, 2 °C, 6 days
  Area of leaf: 11.7 cm^2
  Height: 7.2 cm
  Weight of root: 3.0 g
0.0001 mg/l, 2 °C, 9 days
  Area of leaf: 12.6 cm^2
  Height: 7.3 cm
  Weight of root: 3.2 g
0.0001 mg/l, 2 °C, 12 days
  Area of leaf: 13 cm^2
  Height: 7.5 cm
  Number of leaf: 3
  Number of tiller: 3
  Weight of root: 3.9 g
0.0001 mg/l, 3 °C, 3 days
  Area of leaf: 10.4 cm^2
  Height: 7.1 cm
  Weight of root: 2.5 g
0.0001 mg/l, 3 °C, 6 days
  Area of leaf: 12 cm^2
  Height: 7.2 cm
  Weight of root: 2.6 g
0.0001 mg/l, 3 °C, 9 days
  Area of leaf: 12.6 cm^2
  Height: 7.5 cm
  Weight of root: 2.9 g
0.0001 mg/l, 3 °C, 12 days
  Area of leaf: 13.2 cm^2
  Height: 7.6 cm
  Number of leaf: 3
  Number of tiller: 2
  Weight of root: 2.9 g
0.0001 mg/l, 4 °C, 3 days
  Area of leaf: 10.6 cm^2
  Height: 7.1 cm
  Weight of root: 2.5 g
0.0001 mg/l, 4 °C, 6 days
  Area of leaf: 12.2 cm^2
  Height: 7.3 cm
  Weight of root: 2.6 g
0.0001 mg/l, 4 °C, 9 days
  Area of leaf: 13 cm^2
  Height: 7.5 cm
  Weight of root: 2.9 g
0.0001 mg/l, 4 °C, 12 days
  Area of leaf: 13.4 cm^2
  Height: 7.7 cm
  Number of leaf: 3
  Number of tiller: 2
  Weight of root: 2.9 g
0.0001 mg/l, 5 °C, 3 days
  Area of leaf: 10.6 cm^2
  Height: 7.2 cm
  Weight of root: 2.6 g
0.0001 mg/l, 5 °C, 6 days
  Area of leaf: 12.4 cm^2
  Height: 7.4 cm
  Weight of root: 2.8 g
0.0001 mg/l, 5 °C, 9 days
  Area of leaf: 13.6 cm^2
  Height: 7.5 cm
  Weight of root: 2.9 g
0.0001 mg/l, 5 °C, 12 days
  Area of leaf: 14 cm^2
  Height: 7.8 cm
  Number of leaf: 3
  Number of tiller: 2
  Weight of root: 3.0 g
0.001 mg/l, 1 °C, 3 days
  Area of leaf: 10.1 cm^2
  Height: 6.9 cm
  Weight of root: 2.8 g
0.001 mg/l, 1 °C, 6 days
  Area of leaf: 11.3 cm^2
  Height: 7.1 cm
  Weight of root: 3.1 g
0.001 mg/l, 1 °C, 9 days
  Area of leaf: 12.6 cm^2
  Height: 7.3 cm
  Weight of root: 3.4 g
0.001 mg/l, 1 °C, 12 days
  Area of leaf: 13 cm^2
  Height: 7.3 cm
  Number of leaf: 3
  Number of tiller: 3
  Weight of root: 3.9 g
0.001 mg/l, 2 °C, 3 days
  Area of leaf: 10.3 cm^2
  Height: 6.9 cm
  Weight of root: 2.8 g
0.001 mg/l, 2 °C, 6 days
  Area of leaf: 11.8 cm^2
  Height: 7.1 cm
  Weight of root: 3.0 g
0.001 mg/l, 2 °C, 9 days
  Area of leaf: 12.6 cm^2
  Height: 7.2 cm
  Weight of root: 3.2 g
0.001 mg/l, 2 °C, 12 days
  Area of leaf: 13.1 cm^2
  Height: 7.3 cm
  Number of leaf: 3
  Number of tiller: 3
  Weight of root: 3.9 g
0.001 mg/l, 3 °C, 3 days
  Area of leaf: 10.4 cm^2
  Height: 7 cm
  Weight of root: 2.5 g
0.001 mg/l, 3 °C, 6 days
  Area of leaf: 12 cm^2
  Height: 7.1 cm
  Weight of root: 2.6 g
0.001 mg/l, 3 °C, 9 days
  Area of leaf: 12.6 cm^2
  Height: 7.4 cm
  Weight of root: 2.9 g
0.001 mg/l, 3 °C, 12 days
  Area of leaf: 13.2 cm^2
  Height: 7.3 cm
  Number of leaf: 3
  Number of tiller: 2
  Weight of root: 2.9 g
0.001 mg/l, 4 °C, 3 days
  Area of leaf: 10.6 cm^2
  Height: 7.1 cm
  Weight of root: 2.5 g
0.001 mg/l, 4 °C, 6 days
  Area of leaf: 12.4 cm^2
  Height: 7.3 cm
  Weight of root: 2.6 g
0.001 mg/l, 4 °C, 9 days
  Area of leaf: 13.1 cm^2
  Height: 7.5 cm
  Weight of root: 2.9 g
0.001 mg/l, 4 °C, 12 days
  Area of leaf: 13.5 cm^2
  Height: 7.7 cm
  Number of leaf: 3
  Number of tiller: 2
  Weight of root: 2.9 g
0.001 mg/l, 5 °C, 3 days
  Area of leaf: 10.7 cm^2
  Height: 7.5 cm
  Weight of root: 2.8 g
0.001 mg/l, 5 °C, 6 days
  Area of leaf: 14.6 cm^2
  Height: 7.7 cm
  Weight of root: 2.9 g
0.001 mg/l, 5 °C, 9 days
  Area of leaf: 16.4 cm^2
  Height: 7.9 cm
  Weight of root: 3.0 g
0.001 mg/l, 5 °C, 12 days
  Area of leaf: 17 cm^2
  Height: 8.2 cm
  Number of leaf: 3
  Number of tiller: 3
  Weight of root: 3.7 g
0.01 mg/l, 1 °C, 3 days
  Area of leaf: 10.1 cm^2
  Height: 6.9 cm
  Weight of root: 2.8 g
0.01 mg/l, 1 °C, 6 days
  Area of leaf: 11.9 cm^2
  Height: 7.2 cm
  Weight of root: 3.0 g
0.01 mg/l, 1 °C, 9 days
  Area of leaf: 12.9 cm^2
  Height: 7.3 cm
  Weight of root: 3.4 g
0.01 mg/l, 1 °C, 12 days
  Area of leaf: 13.6 cm^2
  Height: 7.4 cm
  Number of leaf: 3
  Number of tiller: 3
  Weight of root: 3.9 g
0.01 mg/l, 2 °C, 3 days
  Area of leaf: 10.3 cm^2
  Height: 6.9 cm
  Weight of root: 2.8 g
0.01 mg/l, 2 °C, 6 days
  Area of leaf: 11.8 cm^2
  Height: 7.2 cm
  Weight of root: 3.0 g
0.01 mg/l, 2 °C, 9 days
  Area of leaf: 12.8 cm^2
  Height: 7.3 cm
  Weight of root: 3.1 g
0.01 mg/l, 2 °C, 12 days
  Area of leaf: 13.4 cm^2
  Height: 7.5 cm
  Number of leaf: 3
  Number of tiller: 3
  Weight of root: 3.2 g
0.01 mg/l, 3 °C, 3 days
  Area of leaf: 10.4 cm^2
  Height: 7 cm
  Weight of root: 2.5 g
0.01 mg/l, 3 °C, 6 days
  Area of leaf: 12 cm^2
  Height: 7.2 cm
  Weight of root: 2.6 g
0.01 mg/l, 3 °C, 9 days
  Area of leaf: 12.6 cm^2
